“Also recorded” adds a separate entry of the source.
How the values were obtained:
[1] = target: T1, α1 NKA/Src receptor complex (Sus scrofa, UniProt P05024); assay: ouabain-induced Src/ERK activation in LLC-PK1 cells (immunostaining, Western blot); assay type: cell-based, pig
T1 construct: endogenous in cells; host or cells: LLC-PK1
Experimental: (§1) Western blot, Immunoprecipitation and Immunostaining. Cells were grown to 100% confluency and Western blot were performed as described before. Images were quantified with ImageJ software from NIH. Immunoprecipitation studies were performed as described before. α1 NKA immunostaining was performed by growing cells on sterilized coverslips in 6 well tissue culture plates and permeabilization/fixation with ice-cold methanol followed by blocking with 5% horse serum and 0.1% Triton X-100 in 1× Phosphate buffered saline (PBS) for 30 minutes. Coverslips were then stained with an anti-α1 NKA antibody (Millipore, Cat #05-369) at 1:100 dilution in 1% BSA (Bovine Serum Albumin) containing 1×PBS solution for overnight. Next day after three washes, coverslips were stained with Alexa Fluor 488 conjugated anti-mouse secondary antibody (Thermo-Fisher) for 1 hour, washed extensively and then imaged using a fluorescent microscope with GFP filter or confocal microscope (LEICA-DMIRE2). E-cadherin and occludin immunostaining was performed in a similar manner. Phospho-Src, phospho ERK1/2 immunostaining were performed as described before and images were taken with a LEICA DMIRE2 confocal microscope.
Characterization of MB5 activity on the NKA receptor function known as the NKA/Src binary receptor mechanism was conducted in a pig kidney epithelial cells (LLC-PK1)-based platform using immunostaining and Western blot analyses. […] The change of NKA conformation that occurs upon binding of agonists such as ouabain, results in the release and activation of the Src kinase domain from the “Naktide” site of NKA CD3, while the other interaction (constitutive) persists between NKA CD2 and the SH2 domain of Src. […] In LLC-PK1-derived cells with low NKA receptor constitutive activity due to substantial reduction (over 80%) of α1 NKA expression by siRNA (PY17 cells), increased basal Src and ERK activity is observed due to the abnormally high amount of Src kinase that remains in an active conformation. […]

[2] = test system: EGF or dopamine induced ERK activation; assay: EGF- or dopamine-induced ERK activation in LLC-PK1 cells; assay type: cell-based, pig
Experimental: as §1, with “microscope. […]” for “microscope.”

α1 NKA = target: T2, α1 NKA (Homo sapiens, UniProt P05023); assay: α1 NKA endocytosis (biotinylation assay) in subclone 4; assay type: cell-based; conditions: xenograft derived clone 4
T2 construct: endogenous in cells; host or cells: subclone 4 (from DU145 α1 NKA knockdown xenograft)
Experimental: α1 NKA endocytosis assay. Endocytosis assay was performed as described before.

subclone 2 cells = assay: Boyden chamber migration assay; assay type: cell-based, human
Experimental: Boyden chamber assay. Different sub-clones were grown up to 100% confluency and then gently trypsinized with 0.05% trypsin-EDTA and 100,000 cells were plated in upper chamber of a […] containing transwell filter with 0.5% FBS containing media. Full serum (10% FBS) containing media was added to the lower chamber as chemoattractant. After 16 hours, a colorimetric assay was used to determine the migration of cells to the lower side of the filter, with absorbance read at 590 nm. Briefly, lower sides of the transwell were washed with 1×PBS and then fixed with ice cold methanol for 10 minutes. After gentle washes with 1×PBS, lower side of the filter were stained with Crystal violet solution (0.5% Crystal Violet in 20% Ethanol), washed and the stain was extracted with methanol. Result was normalized against migration of sub-clone 5 cells. For cell migration in presence of pharmacological compounds, cells at 100% confluency were pretreated for 24 hours with or without MB5, PP2 (Sigma-Aldrich, Catalogue No P0042) or FAK inhibitor I (Millipore, Catalogue No. 324877) and then assay was performed as described above.

DU145 derived subclones [3] = assay: Western blot / immunostaining of EMT markers, Src/FAK activation and proliferation markers in DU145 derived subclones; assay type: cell-based, human; conditions: for expression of PCNA: 72 hours
Experimental: as §1
Next, it was tested whether MB5 as an inverse agonist of NKA receptor function could reverse EMT and stop invasion of PCa cells by rescuing α1 NKA expression in PCa. Subclone 5 and 2 cells were exposed to a long term treatment (0, 24, 48 and 72 hours) with 100 nM MB5.

subclone 2 spheroids = assay: MMP secretion by spheroids (Western blot of conditioned media); assay type: cell-based, human
Experimental: For drug treatment, compound was diluted into media, from stock solution. For MMP secretion, conditioned media for 3 days were collected from top of matrix and assessed for MMP secretion by Western blot using Matrix Remodeling Antibody Sampler kit from Cell Signaling Technology (Cat #73959).

KD cells from C4-2 = assay: Western blot of EMT phenotype in α1 KD cells derived from C4-2; assay type: cell-based, human; conditions: KD cells from C4-2, 1 μM
Experimental: Cell lines. DU145, PC3 and C4-2 cell lines were purchased from and maintained according to ATCC recommendations. Parental DU145 and derived cell lines were cultured in high glucose […] supplemented with 10% Fetal Bovine Serum and 1% Penicillin/Streptomycin in 37° c. humidified incubator with 5% C02. LLC-PK1, PY17, Y260A, A425P and YFP-α1TCN cells were cultured in the same media and under similar conditions. PC3 and C4-2 cell lines were cultured in RPMI medium with similar conditions as described above. α1 knockdown KD cells were generated from DU145 and C4-2 using a α1 NKA-specific siRNA, as previously described. Knockdown was verified by both qPCR and Western blot analyses. Rat α1 NKA rescued cell lines were generated by transfecting KD cells with a pRC/CMV-α1 AACm1 vector followed by selection with ouabain (2 μM), as previously described. Cells were passaged for three generations without ouabain before conducting experiments.
Western blot, Immunoprecipitation and Immunostaining. Cells were grown to 100% confluency and Western blot were performed as described before. Images were quantified with ImageJ software from NIH. […]

A425P and Y260A cells = assay: basal ERK activation in Src binding mutant Y260A and A425P cells; assay type: cell-based, pig
Experimental: Characterization of MB5 activity on the NKA receptor function known as the NKA/Src binary receptor mechanism was conducted in a pig kidney epithelial cells (LLC-PK1)-based platform using immunostaining and Western blot analyses. […] The change of NKA conformation that occurs upon binding of agonists such as ouabain, results in the release and activation of the Src kinase domain from the “Naktide” site of NKA CD3, while the other interaction (constitutive) persists between NKA CD2 and the SH2 domain of Src. […] In LLC-PK1-derived cells with low NKA receptor constitutive activity due to substantial reduction (over 80%) of α1 NKA expression by siRNA (PY17 cells), increased basal Src and ERK activity is observed due to the abnormally high amount of Src kinase that remains in an active conformation. Increased basal Src and ERK activity is also observed in LLC-PK1-derived cells with reduced NKA receptor constitutive activity that result from mutations in either domain of interaction with Src without alteration of the ion pumping activity (e.g. A425P on the Naktide sequence, or Y260A on the CD2 domain).

plasma stability = assay type: in vitro ADME
DU145 derived subclones [4] = assay: Western blot / immunostaining of EMT markers, Src/FAK activation and proliferation markers in DU145 derived subclones; assay type: cell-based, human; conditions: subclone 2 cells, 1 μM, 24 hours
[5] = Western blot, 100 nM, up to 72 hours

O=c1c2cccc(O)c2oc2c(O)c(O)ccc12 [MB5]
ERK activation / NKA receptor function by the compound alone ([1]; baseline): did not activate NKA receptor function under baseline condition; also recorded: did not activate ERK | inhibition of ouabain-induced ERK (and Src) activation ([1]; pretreatment before ouabain): abolished ouabain-induced ERK activation; also recorded: better efficacy to inhibit ouabain-induced ERK activation than MB7; also recorded: dose-dependently inhibited Src and ERK activation; also recorded: significantly decreased ouabain-induced ERK signal | EGF-induced ERK activation [2]: did not inhibit; also recorded: failed to inhibit; also recorded: did not affect EGF-induced ERK activation | dopamine-induced ERK activation [2]: did not inhibit; also recorded: failed to inhibit; also recorded: did not affect dopamine-induced activation of ERK | α1 NKA endocytosis (α1 NKA): abolished α1 NKA endocytosis; also recorded: significantly reduced α1 NKA endocytosis | inhibition of migration of cancer cells (subclone 2 cells; Boyden chamber assay, clone 2): about 50% | cell migration compared with PP2 and FAK inhibitor (subclone 2 cells; clone 2): as effectively as other kinase inhibitors | reduction of cell migration (subclone 2 cells; pretreatment with 100 nM for 24 hours, subclone 2): 50% | Src, FAK activation and Myc expression (DU145 derived subclones [3]; 100 nM, subclones 5 and 2): significant decrease | expression of mesenchymal markers (SNAIL, ZEB1) (DU145 derived subclones [3]; [5]): downregulating; also recorded: decreased expression of mesenchymal markers | α1 NKA and E-cadherin expression (DU145 derived subclones [3]; [5]): increasing; also recorded: significant time-dependent increase; also recorded: increased α1 NKA and E-cadherin expression | expression of PCNA (DU145 derived subclones [3]; subclone 2, 100 nM): significantly reduced | expression of PCNA (DU145 derived subclones [3]; subclone 5, 100 nM): abolished | MMP2 and 9 secretion (subclone 2 spheroids): significantly reduced MMP2 and 9 secretions | expression of SNAIL, SLUG and Myc (KD cells from C4-2): inhibiting the expression of SNAIL, SLUG and Myc | occludin and E-cadherin expression (KD cells from C4-2): upregulate occludin and E-cadherin expression | basal ERK phosphorylation (A425P and Y260A cells): did not reduce high levels of ERK phosphorylation | plasma stability (plasma stability): good plasma stability | E-cadherin and occludin expression (immunostaining) (DU145 derived subclones [4]): Increase in E-cadherin and occludin expression
